Consider 7 compounds from patent publication US20070010669A1, “Novel class of cytodifferentiating agents and histone deacetylase inhibitors, and methods of use thereof” (priority 1999, published 2007).

SMILES strings stand for the structures. Where two headings read alike, the source gives them in different places.

Data set [1] has as its target T1, affinity purified human epitope-tagged (Flag) HDAC1 (Homo sapiens, UniProt Q13547). The data set can be described thus: Histone Deacetylase (HDAC) enzymatic activity, [3H]acetyl-labeled histone substrate. In kind it is biochemical. Also on record: Flag. As to the method: Substrate ([^3H]acetyl-labeled murine erythroleukemia cell-derived histone) was added and the samples were incubated for 20 min at 37° C. in a total volume of 30 μl. The reaction were then stopped and released acetate was extracted and the amount of radioactivity released determined by scintillation counting.
Substrate ([^3H]acetyl-labelled murine erythroleukemia cell-derived histone) was added and the samples were incubated for 20 min at 37° C. in a total volume of 30 μl. The reactions were then stopped and relaesed acetate was extracted and the amount of radioactivity released determined by scintillation counting.
Substrate ([^3H]acetyl-labelled murine erythroleukemia cell-derived histone) was added and the samples were incubated for 20 min at 37° C. in a total volume of 30 μl. The reactions were then stopped and released acetate was extracted and the amount of radioactivity released determined by scintillation counting.
The effect was assayed by incubating the enzyme preparation in the absence of substrate on ice for 20 minutes with the indicated amounts of compound. Substrate([^3H]acetyl-labeled murine erythroleukemia cell-derived histones) was added and the samples were incubated for 20 minutes at 37° C. in a total volume of 30 μl. The reactions were then stopped and released acetate was extracted and the amount of radioactivity released determined by scintillation counting.

A further data set has as its target HDAC (Homo sapiens, UniProt Q13547). The experiment in a line: Inhibition of the enzyme HDAC (Examples 12 and 13). In kind it is biochemical. The note with it: read-out: ID50 as inhibitor of HDAC.
The subject of data set [2] is Murine erythroleukemia (MEL) cells. The data set can be described thus: MEL cell differentiation assay (benzidine assay; cell growth by Coulter Counter). To be noted: for MEL Differentiation % B+ / MEL Differentiation Opt.: Table 1; for MEL Differentiation % B+: benzidine-positive cells at Opt. concentration; for MEL Differentiation Opt.: optimal concentration; for MEL Diff Cells/ml × 10^−5: cell growth. The format is cell-based. As to the method: The MEL cell differentiation assay was used to assess the ability of Compound 1 to induce terminal differentiation. MEL cells (logarithmically dividing) were cultured with the indicated concentrations of Compound 1. Following a 5-day culture period, cell growth was determined using a Coulter Counter and differentiation was determined microscopically using the benzidine assay to determine hemoglobin protein accumulation on a per cell basis.
The MEL cell differentiation assay was used to assess the ability of Compound 2 to induce terminal differentiation. MEL cells (logarithmically dividing) were cultured with the indicated concentrations of Compound 2. Following a 5-day culture period differentiation was determined microscopically using the benzidine assay to determine hemoglobin protein accumulation on a per cell basis.
The MEL cell differentiation assay was used to assess the ability of Compound 3 to induce terminal differentiation. MEL cells (logarithmically dividing) were cultured with the indicated concentrations of Compound 3. Following a 5-day culture period differentiation was determined microsdopically using the benzidine assay to determine hemoglobin protein accumulation on a per cell basis.
The MEL cell differentiation assay was used to assess the ability of Compound 4 to induce terminal differentiation. MEL cells (logarithmically dividing) were cultured with the indicated concentrations of Compound 4. Following a 5-day culture period differentiation was determined microscopically using the benzidine assay to determine hemoglobin protein accumulation on a per cell basis.
All the compounds which were prepared were tested. […] Table 2 is compiled from experiments similar to the experiments described in Examples 7-10 above.

Data set [3] addresses T1, affinity purified human epitope-tagged (Flag) HDAC1. To be noted: cited from earlier work.
The target of another data set is HDAC3 (Homo sapiens, UniProt O15379). The note with it: cited from earlier work.
HDAC3, sequence (O15379 whole entry, the tested form may be a part): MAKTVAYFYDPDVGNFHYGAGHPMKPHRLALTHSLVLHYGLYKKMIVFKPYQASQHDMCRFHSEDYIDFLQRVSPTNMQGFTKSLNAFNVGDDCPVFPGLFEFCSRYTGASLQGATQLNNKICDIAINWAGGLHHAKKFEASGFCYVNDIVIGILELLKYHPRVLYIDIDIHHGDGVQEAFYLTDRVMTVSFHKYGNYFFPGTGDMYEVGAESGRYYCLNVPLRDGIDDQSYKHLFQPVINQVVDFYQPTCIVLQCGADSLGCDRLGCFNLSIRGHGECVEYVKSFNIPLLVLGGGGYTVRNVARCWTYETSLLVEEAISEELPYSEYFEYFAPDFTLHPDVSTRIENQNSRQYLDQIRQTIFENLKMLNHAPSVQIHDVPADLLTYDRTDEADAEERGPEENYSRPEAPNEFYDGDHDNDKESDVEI
HDAC3, sequence (Q9Y618 whole entry, further chain, the tested form may be a part): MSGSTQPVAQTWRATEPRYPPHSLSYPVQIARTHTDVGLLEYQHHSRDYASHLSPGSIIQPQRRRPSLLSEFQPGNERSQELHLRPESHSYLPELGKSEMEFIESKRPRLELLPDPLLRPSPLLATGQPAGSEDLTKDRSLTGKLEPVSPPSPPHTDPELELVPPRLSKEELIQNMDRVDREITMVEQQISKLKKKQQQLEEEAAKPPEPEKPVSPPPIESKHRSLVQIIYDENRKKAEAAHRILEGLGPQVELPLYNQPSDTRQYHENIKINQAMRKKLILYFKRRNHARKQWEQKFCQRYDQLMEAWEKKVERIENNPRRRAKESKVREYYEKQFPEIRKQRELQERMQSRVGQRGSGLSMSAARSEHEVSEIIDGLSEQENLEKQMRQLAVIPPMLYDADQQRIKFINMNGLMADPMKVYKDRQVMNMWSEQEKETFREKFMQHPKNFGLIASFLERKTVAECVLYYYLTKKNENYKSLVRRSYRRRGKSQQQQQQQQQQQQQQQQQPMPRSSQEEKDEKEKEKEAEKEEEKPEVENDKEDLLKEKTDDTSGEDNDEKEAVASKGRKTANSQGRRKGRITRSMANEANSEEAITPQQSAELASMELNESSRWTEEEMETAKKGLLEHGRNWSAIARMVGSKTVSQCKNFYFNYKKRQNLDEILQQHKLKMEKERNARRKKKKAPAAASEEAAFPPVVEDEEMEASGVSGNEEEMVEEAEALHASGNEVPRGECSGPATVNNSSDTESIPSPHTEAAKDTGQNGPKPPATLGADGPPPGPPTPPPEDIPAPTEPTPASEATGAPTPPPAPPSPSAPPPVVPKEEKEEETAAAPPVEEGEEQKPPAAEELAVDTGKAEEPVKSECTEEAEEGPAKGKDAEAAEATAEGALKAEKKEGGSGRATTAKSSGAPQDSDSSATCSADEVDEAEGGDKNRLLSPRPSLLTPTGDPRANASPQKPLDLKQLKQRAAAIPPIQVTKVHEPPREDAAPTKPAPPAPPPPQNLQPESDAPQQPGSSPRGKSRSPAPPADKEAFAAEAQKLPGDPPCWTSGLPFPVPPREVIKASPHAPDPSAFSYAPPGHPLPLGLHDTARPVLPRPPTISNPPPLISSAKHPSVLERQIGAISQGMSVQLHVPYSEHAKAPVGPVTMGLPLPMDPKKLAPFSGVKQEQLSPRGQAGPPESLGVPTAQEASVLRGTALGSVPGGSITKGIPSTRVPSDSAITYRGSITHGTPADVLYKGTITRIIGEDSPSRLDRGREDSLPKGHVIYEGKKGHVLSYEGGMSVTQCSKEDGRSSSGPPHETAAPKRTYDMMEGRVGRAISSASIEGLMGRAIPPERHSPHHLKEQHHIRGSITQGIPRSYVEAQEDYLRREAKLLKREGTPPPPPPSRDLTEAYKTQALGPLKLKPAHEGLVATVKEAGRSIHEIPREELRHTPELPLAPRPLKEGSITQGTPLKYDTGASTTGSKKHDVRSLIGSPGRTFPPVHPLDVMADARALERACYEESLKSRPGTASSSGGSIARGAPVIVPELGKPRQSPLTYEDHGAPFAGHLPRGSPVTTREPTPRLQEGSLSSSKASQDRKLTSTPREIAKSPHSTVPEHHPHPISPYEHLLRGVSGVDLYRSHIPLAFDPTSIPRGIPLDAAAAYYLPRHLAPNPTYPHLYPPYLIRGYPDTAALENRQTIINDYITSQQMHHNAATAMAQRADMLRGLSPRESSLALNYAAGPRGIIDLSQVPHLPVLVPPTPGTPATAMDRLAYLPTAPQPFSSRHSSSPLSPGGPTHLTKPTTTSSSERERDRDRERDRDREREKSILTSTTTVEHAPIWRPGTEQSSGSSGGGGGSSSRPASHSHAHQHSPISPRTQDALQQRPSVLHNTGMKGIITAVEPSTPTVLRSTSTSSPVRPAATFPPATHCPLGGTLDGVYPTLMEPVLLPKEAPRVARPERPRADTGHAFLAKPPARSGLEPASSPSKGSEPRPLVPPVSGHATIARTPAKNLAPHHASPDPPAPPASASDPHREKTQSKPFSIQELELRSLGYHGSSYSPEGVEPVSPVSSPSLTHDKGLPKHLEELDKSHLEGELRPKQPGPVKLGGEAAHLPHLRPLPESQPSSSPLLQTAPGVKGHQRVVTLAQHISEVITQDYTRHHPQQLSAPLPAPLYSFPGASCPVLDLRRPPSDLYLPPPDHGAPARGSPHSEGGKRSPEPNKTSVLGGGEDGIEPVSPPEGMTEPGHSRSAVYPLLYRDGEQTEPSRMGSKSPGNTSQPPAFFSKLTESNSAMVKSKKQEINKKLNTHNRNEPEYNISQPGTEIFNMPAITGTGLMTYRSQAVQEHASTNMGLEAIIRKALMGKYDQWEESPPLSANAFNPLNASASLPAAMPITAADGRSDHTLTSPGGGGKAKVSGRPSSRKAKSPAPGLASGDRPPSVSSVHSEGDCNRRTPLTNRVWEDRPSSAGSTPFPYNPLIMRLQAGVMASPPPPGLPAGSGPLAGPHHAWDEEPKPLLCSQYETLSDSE
Data set [4] concerns acetylated histones H3 and H4 in peripheral blood mononuclear cells. The experiment in a line: Acetylated histones in peripheral blood mononuclear cells of patients under treatment. In kind it is in vivo. The note with it: IV infusion daily ×3, FIG. 10. How it is done: FIG. 10. SAHA causes accumulation of acetylation histones H3 and H4 in peripheral blood […] cells in patients. SAHA was administered by IV infusion daily ×3. Samples were isolated before (Pre), following infusion (Post) and 2 hours after infusion.
The in vivo effect of SAHA has been studied using the CWR22 human prostate xenograft in mice (68).

Data set [5] has as its system CWR22 human prostate xenograft. The note with it: 50 mg/kg/day. The text has this:
SAHA is currently in Phase I Clinical Trials in patients with solid tumors.

Where [6] appears, read: Table 2, unit nM, read-out: HDAC inh ID50.

T1 sequence (Q13547 whole entry): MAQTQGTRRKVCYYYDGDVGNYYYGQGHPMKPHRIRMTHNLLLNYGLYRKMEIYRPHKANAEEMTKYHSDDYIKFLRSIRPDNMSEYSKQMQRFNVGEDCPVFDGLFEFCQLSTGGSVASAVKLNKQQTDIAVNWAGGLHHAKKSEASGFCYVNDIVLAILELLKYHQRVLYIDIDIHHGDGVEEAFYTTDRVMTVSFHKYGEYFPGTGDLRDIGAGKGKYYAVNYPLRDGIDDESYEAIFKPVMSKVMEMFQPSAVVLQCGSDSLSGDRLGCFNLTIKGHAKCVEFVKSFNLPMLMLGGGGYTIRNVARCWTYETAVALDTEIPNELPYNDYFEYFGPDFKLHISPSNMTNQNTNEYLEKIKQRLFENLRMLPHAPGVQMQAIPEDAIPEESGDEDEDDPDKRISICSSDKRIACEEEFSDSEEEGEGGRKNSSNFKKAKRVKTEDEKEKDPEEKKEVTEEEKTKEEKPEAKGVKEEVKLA
HDAC, sequence (Q13547 whole entry): as above

`O=C(CCCCC[C@H](NC(=O)OCc1ccccc1)C(=O)Nc1cccc2cccnc12)NO` [Compound 4, N-benzyloxycarbonyl-(L)-α-aminosuberoyl-8-quinolinamide-ω-hydroxamic acid]: the IC50 in data set [1] (FIGS. 2, 5, 7, read-out: ID50 of HDAC1 enzymatic activity) was less than 10 nM; in data set [1] (Table 1, read-out: HDAC Inhibition ID50), less than 10 nM; in data set [1] (setting [6]), 2.5 nM; at HDAC (Example 12), 2.5 nM. The “concentration able to induce MEL cell differentiation” value in data set [2] (FIGS. 1, 3, 4, 6, 5-day culture) worked out at 40 nM. For the same compound, the “MEL Differentiation % B+” value in data set [2] is reported as 8%. The “MEL Differentiation Opt.” value in data set [2] (5-day culture) amounted to 40 nM. In addition, in data set [2] (Table 2), the “MEL Diff % B+” value was found to be 8%. Also, in data set [2] (Table 2), the “MEL Diff Cells/ml × 10^−5” value worked out at 13 Cells/ml × 10^−5.

`O=C(CCCCCC(C(=O)Nc1cccc2cccnc12)C(=O)Nc1cccc2cccnc12)NO` [Compound 7]: the IC50 on HDAC (Example 12) was 50 nM.

For `O=C(/C=C/c1cccc(CC(=O)Nc2ccccc2)c1)NO` [Compound 689], in data set [1] (setting [6]), the IC50 was found to be 200 nM. Also, the “MEL Diff % B+” value in data set [2] (Table 2) was determined as 48%.

On to `O=C(/C=C/c1cccc(C(C(=O)Nc2cccc3cccnc23)C(=O)Nc2cccc3cccnc23)c1)NO` [Compound 690], for which the IC50 in data set [1] (setting [6]) was 150 nM. In addition, in data set [2] (Table 2), the “MEL Diff % B+” value is on record as 38%.

As to `O=C(CCCCCC(C(=O)Nc1cccc2ncccc12)C(=O)Nc1cccc2ncccc12)NO` [Compound 691], the IC50 in data set [1] (setting [6]) amounted to 100 nM. Moreover, in data set [2] (Table 2), the “MEL Diff % B+” value stood at 0% and the “MEL Diff Cells/ml × 10^−5” value is recorded as “No inh”.

For the compound `O=C(CCCCCCC(=O)Nc1nccs1)Nc1ccccc1` [Compound 693], the IC50 in data set [1] (Table 2, unit μM, read-out: HDAC inh ID50) was greater than 100000 nM. For the same compound, in data set [2] (Table 2), the “MEL Diff % B+” value came to 0% and the “MEL Diff Cells/ml × 10^−5” value is “No inh”.

In the case of `O=C(CCCCCCC(=O)Nc1ccccc1)NO` [SAHA, suberoylanilide hydroxamic acid, reference compound], the IC50 on HDAC was 1000 nM. Also, the “inhibition of affinity purified HDAC1” value in data set [3] is recorded as “inhibits”. The “inhibition of affinity purified HDAC3” value on HDAC3 is given as “inhibits”. In data set [4], the “acetylated histones H3 and H4 in peripheral blood mononuclear cells” value is reported as “accumulation”. In data set [5], the “reduction in mean final tumor volume compared to controls” value was 97% and the toxicity entry was “no .apparent toxicity”. In addition, the “acetylated histones H3 and H4 in the tumor xenograft” value in data set [5] (FIG. 9) was “increase”. The “optimal dose for the cytodifferentiation of MEL cells” value in data set [2] (Example 12) stood at 2.5 µM. For the same compound, the “MEL Differentiation % B+” value in data set [2] is given as 68%. Moreover, in data set [2] (5-day culture), the “MEL Differentiation Opt.” value worked out at 2500 nM. In addition, in data set [2] (Table 2), the “MEL Diff % B+” value amounted to 68% and the “MEL Diff Cells/ml × 10^−5” value is listed as 3.6 Cells/ml × 10^−5. For the same compound, in data set [2] (Table 2, cells printed in μM), the “MEL Diff Opt.” value is 2.5 µM.
